{
  "source": "patent US20120082658A1",
  "about": "“Methods for the Treatment of Allergic Diseases” (VentiRx Pharmaceuticals, Inc., priority 2010, published 2012)",
  "assay_type_in_all_cases": "cell-based",
  "key": {"[1]": {"test_system": "human peripheral blood mononuclear cells (PBMCs)", "test": "Cytokine production in isolated human PBMCs", "conditions": "for EC50: Homo sapiens, PBMC", "description": "(§1) Preclinical studies were performed with VTX-378, the active pharmaceutical ingredient in VTX-1463. The specificity of VTX-378 for human TLR8 relative to other TLRs was assessed in transfected Human Embryonic Kidney 293 (HEK293) cells engineered to express individual TLRs (2-9) via transfection, and assessed using an NF-κB driven reporter system. […] The pharmacologic effects of VTX-378 were characterized in vitro using isolated human peripheral blood mononuclear cells (PBMCs)."}, "TLR6": {"target": "T1, TLR6 (Homo sapiens, UniProt Q9Y2C9)", "T1 construct": "expressed in transfected cells; host or cells: HEK293", "T1 sequence (Q9Y2C9 32-796)": "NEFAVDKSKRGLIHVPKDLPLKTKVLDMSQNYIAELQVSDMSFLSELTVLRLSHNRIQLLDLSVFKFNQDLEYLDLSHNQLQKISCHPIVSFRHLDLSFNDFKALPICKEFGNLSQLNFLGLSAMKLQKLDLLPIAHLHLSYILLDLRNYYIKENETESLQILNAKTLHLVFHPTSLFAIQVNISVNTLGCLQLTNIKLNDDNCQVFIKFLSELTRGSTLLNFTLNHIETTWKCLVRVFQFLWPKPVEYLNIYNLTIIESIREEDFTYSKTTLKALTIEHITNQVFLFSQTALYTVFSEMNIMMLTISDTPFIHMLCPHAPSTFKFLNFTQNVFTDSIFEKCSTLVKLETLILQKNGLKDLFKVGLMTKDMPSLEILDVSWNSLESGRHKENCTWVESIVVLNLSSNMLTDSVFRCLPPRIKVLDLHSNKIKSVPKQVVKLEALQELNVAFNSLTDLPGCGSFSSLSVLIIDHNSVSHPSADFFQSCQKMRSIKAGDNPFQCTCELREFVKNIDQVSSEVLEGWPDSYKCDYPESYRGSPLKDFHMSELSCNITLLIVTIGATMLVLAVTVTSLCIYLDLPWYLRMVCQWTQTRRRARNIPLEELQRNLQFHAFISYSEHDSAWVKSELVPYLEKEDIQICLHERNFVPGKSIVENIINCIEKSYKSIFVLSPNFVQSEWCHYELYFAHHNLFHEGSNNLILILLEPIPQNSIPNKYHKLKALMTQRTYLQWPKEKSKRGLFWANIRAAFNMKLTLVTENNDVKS", "test": "HEK293 cells transfected with human TLR6, NF-κB driven reporter", "conditions": "concentration up to 25 uM", "description": "(§2) FIG. 8 is two graphs depicting the potency and selectivity of VTX-378 for TLR8. The half-maximal effective concentration (EC50) for VTX-378 activation of TLR8 and TLR7 was assessed in peripheral blood mononuclear cells (PBMCs) by the amount of secreted TNFα (A) and by the activity of NF-κB (B) from 15 healthy donors and also in HEK293 cells transfected with various human TLRs.\nas §1"}, "TLR3": {"target": "T2, TLR3 (Homo sapiens, UniProt O15455)", "T2 construct": "expressed in transfected cells; host or cells: HEK293", "T2 sequence (O15455 24-904)": "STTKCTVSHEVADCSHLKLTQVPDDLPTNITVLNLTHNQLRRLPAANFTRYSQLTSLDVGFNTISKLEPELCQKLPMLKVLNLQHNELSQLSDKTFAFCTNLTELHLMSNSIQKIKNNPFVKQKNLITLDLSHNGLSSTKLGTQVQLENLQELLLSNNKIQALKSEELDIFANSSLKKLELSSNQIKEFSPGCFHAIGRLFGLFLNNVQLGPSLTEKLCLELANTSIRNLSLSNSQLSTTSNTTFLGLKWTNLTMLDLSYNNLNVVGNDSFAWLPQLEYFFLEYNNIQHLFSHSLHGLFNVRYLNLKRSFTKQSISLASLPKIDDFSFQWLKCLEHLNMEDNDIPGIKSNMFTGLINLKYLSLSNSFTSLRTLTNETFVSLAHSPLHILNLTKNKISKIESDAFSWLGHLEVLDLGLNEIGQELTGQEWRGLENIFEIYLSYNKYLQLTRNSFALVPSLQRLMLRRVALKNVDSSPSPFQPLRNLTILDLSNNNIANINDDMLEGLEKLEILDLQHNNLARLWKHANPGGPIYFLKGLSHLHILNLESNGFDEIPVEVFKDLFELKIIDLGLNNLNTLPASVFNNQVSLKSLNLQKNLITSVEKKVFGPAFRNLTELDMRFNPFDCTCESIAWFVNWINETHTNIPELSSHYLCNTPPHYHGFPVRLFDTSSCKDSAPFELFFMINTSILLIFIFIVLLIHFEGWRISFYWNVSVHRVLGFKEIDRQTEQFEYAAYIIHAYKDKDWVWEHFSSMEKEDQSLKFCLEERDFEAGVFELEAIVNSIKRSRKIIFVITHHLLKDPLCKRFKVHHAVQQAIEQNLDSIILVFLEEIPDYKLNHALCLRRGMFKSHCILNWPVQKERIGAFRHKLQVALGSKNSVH", "test": "HEK293 cells transfected with human TLR3, NF-κB driven reporter", "conditions": "concentration up to 25 uM", "description": "as §2, §1"}},
  "note": "Read-outs that look alike come from different tables or passages of the source.",
  "data": [
    {"smiles": "CCCN(CCC)C(=O)C1=Cc2ccc(-c3ccc(C(=O)N4CCCC4)cc3)cc2N=C(N)C1", "note": "[VTX-378]", "values": [
      {"measurement": "EC50", "setting": "[1]; analyte IL-10, read-out: EC50, IL-10 production", "value": 120, "unit": "nM"},
      {"measurement": "EC50", "setting": "[1]; analyte IL-12p40, read-out: EC50, IL-12p40 production", "value": 230, "unit": "nM"},
      {"measurement": "EC50", "setting": "[1]; analyte IL-12p70, read-out: EC50, IL-12p70 production", "value": 220, "unit": "nM"},
      {"measurement": "Mean Mediator Level ± SEM, IL-10", "setting": "[1]; VTX-378 1.6 uM", "value": "72 ± 29", "unit": "pg/mL"},
      {"measurement": "Mean Mediator Level ± SEM, IL-12p70", "setting": "[1]; VTX-378 1.6 uM", "value": "38 ± 10", "unit": "pg/mL"},
      {"measurement": "Mean Mediator Level ± SEM, IL-12p40", "setting": "[1]; VTX-378 1.6 uM, *p < 0.05 to Control", "value": "140 ± 32* pg/mL"},
      {"measurement": "production of Th-1 cytokines and chemokines including IL-12, IFN, MCP-1 and MIP-1β", "setting": "[1]; incubation with isolated human PBMCs", "value": "stimulated PBMCs to produce"},
      {"measurement": "activity on TLR6", "setting": "TLR6", "value": "no detectable activity"},
      {"measurement": "activity on TLR3", "setting": "TLR3", "value": "no detectable activity"}
    ]}
  ]
}
